{"source": "patent US20100120662A1", "about": "“Glucose uptake modulator and method for treating diabetes or diabetic complications” (POSTECH Foundation, priority 2005, published 2010)", "key": {"[1]": {"tested_on": "IR, IRS and Akt", "assay": "Phosphorylation of IR, IRS and Akt in C2C12 myotubules", "type": "cell-based", "method": "(§1) UCN enhanced insulin-induced glucose uptake and phosphorylation of IR, IRS and Akt. Myotubules were incubated with 2 nM UCN and/or variant insulin dose (0-50 nm) for 1 min (Inserted immunoblot data). Phosphorylation of IRS and Akt was assessed by western blot analysis with anti-pIRS and anti-pAkt antibodies. Glucose uptake was determined as below.\n(§2) C2C12 cells were maintained in DMEM, supplemented with 10% (v/v) FBS. The cells were grown at 37° C. in a humidified atmosphere of 5% CO2 and 95% air. For the differentiation of C2C12 cells, growing media was changed to DMEM, supplemented with 2% (v/v) ES and cultured for 7 days.\nImmunoprecipitation and immunoblot was performed according to the method of EXAMPLE 8."}, "[2]": {"tested_on": "C2C12 myotubules", "assay": "Glucose uptake in C2C12 myotubules (UCN)", "type": "cell-based", "settings": "in the presence of UCN", "method": "as §1, §2\nAfter differentiation, cells were washed and incubated during 3 hrs with 2 ml Krebs-Ringer phosphate (KRP) containing 130 mM NaCl, 5 mM KCl, 1.3 mM CaCl2.2H2O, 1.3 mM MgSO4.7H2O, and 10 mM Na2HPO4.7H2O, pH 7.4. To determine the effect of UCN on glucose uptake, 10 min incubation in 1 ml of KRP at indicated conditions was carried out. The reaction was performed by adding a mixture of [^14C] 2-DG (1 μCi/ml) and non-radioactive 2-DG (final concentration of 20 mM) for 10 min. […] Cell-associated radioactivity was determined by lysing the cells in 1 N NaOH and followed by scintillation counting. Non-specific uptake was measured by incubating the cells with cytochalasin B (20 μM/ml). […]"}, "[3]": {"tested_on": "insulin receptor (IR)", "assay": "IR autophosphorylation in hIRcB cells", "type": "cell-based, human", "method": "FIG. 12A shown a comparison of insulin sensitizing effect among CRF family which was obtained by incubating cells with 1 μM CRF family and/or 2 nM insulin or with medium alone for 1 min. […] FIG. 12B was obtained by incubating cells with 2 nM insulin and variant dose of UCN (from 2 nM to 1 μM) for 1 min. FIG. 12C was obtained by incubating cells 100 nM UCN and variant dose of insulin for 1 min. Phosphorlyation of IR was assessed by western blotting with anti-pTyr antibodies. FIG. 13D was obtained by incubating cells with 100 nM UCN and/or 10 nM insulin for 0, 2, 10, 30, and 60 min, and then assessing the phosphorlyation of IR by western blotting with anti-pIR antibodies. Quantization of IR autophosphorylation was measured with image gauge software (Fuji film). The values are the mean±S.E. for three experiments. *, P<0.05\nhIRcB cells were maintained in DMEM, supplemented with 10% (v/v) FBS. The cells were grown at 37° C. in a humidified atmosphere of 5% CO2 and 95% air.\nAfter treatment of ligands as indicated time and dose, the cells were washed with cold PBS and lysed with lysis buffer (50 mM HEPES pH 7.5, 150 mM NaCl, 1%\nTriton X-100, 1 mM EDTA, 10% glycerol) containing protease inhibitors (0.5 mM PMSF, 1 μg/ml leupeptin and 5 μg/ml aprotinin) and phosphatase inhibitors (30 mM NaF, 1 mM Na3VO4 and 30 mM Na4O7P2). The cell lysates were incubated for 1 hr at 4° C. After centrifugation (14,000×g for 15 min), equal amounts of soluble extract were incubated, for 4 hrs, with 5 μg of anti-IR antibody and 30 μl of resin volume of immobilized protein A. For gel electrophoresis, the precipitates were dissolved in Laemmli sample buffer. The sample was separated by SDS-PAGE and transferred to a nitrocellulose membrane (Schleicher and Schuell, BA85). Blocking was performed with TTBS buffer (10 mM Tris/HCl, pH 7.5, 150 mM NaCl, and 0.05% Tween 20) containing 5% skimmed milk powder. The membrane was probed with primary for 3 hrs at room temperature. Subsequently the immunoblot was washed and incubated with horseradish peroxidase-linked secondary antibody for 1 hr at room temperature, rinsed four times in TTBS buffer, and developed with horseradish peroxidase-dependent chemiluminescence reagents (Amersham International, United Kingdom)."}, "[4]": {"tested_on": "STZ-mouse", "assay": "Blood glucose in STZ mice after intravenous UCN and/or insulin", "type": "in vivo", "method": "(§3) The inserted immunoblot data is about IR phosphorylation by UCN in skeletal muscle. Mice were injected (intravenously) with either vehicle (0.1% BSA in saline) or UCN (0.1-100 μM). Values are the mean±S.D. for four control and four UCN-treated mice. […] The inserted immunoblot data was about IR phosphorylation by treatment of UCN in skeletal muscle of STZ mouse. Mice were injected (intravenously) with vehicle (0.1% BSA in saline), UCN (0.1 μM) and/or insulin (1 nM). And plasma levels of glucose were measured during 45 min. Values are the mean±S.D. for six mice each group. *, P<0.05.\nFor preparing STZ-mouse, male Institute of Cancer Research (ICR) mice weighing 20-25 g, aged 8 weeks, were obtained from the Hyochang Science. STZ-induced diabetic mice were prepared by administering an intraperineal injection of STZ (Sigma Chemical, St. Louis, Mo.) (75 mg/kg) to male ICR mice after the animals were fasted for 1 day. And the next day had one more injection of STZ. Mice with plasma glucose concentrations ≧280 mg/dl were considered to have type 1 diabetes. All tests were carried out 3 days after the injection of STZ."}, "[5]": {"tested_on": "ICR mice", "assay": "Blood glucose in normal ICR mice after intravenous UCN", "type": "in vivo, mouse", "settings": "i.v.", "method": "as §3\nFor prepare the normal test animal, male Institute of Cancer Research (ICR) mice weighing 20-25 g, aged 8 weeks, were obtained from the Hyochang Science were housed four to cage in a temperature- and light-controlled room (20-22° C.; 12-hrs light, 12-hrs dark cycle; lights on at 07:00 hr) and were provided with regular diet chow and water ad libitum. The laboratory procedures used conformed to the guidelines of the Korea Government Guide for the Care of Use of Laboratory Animals. In the in vivo study, after fasting overnight, mice were injected to intravenous vein with 0.1% BSA saline or UCN, then plasma glucose was measured on a time by glucose analyzer (model AGM-2100, allmedicus Inc., anyang, Korea)"}, "[6]": {"tested_on": "insulin receptor (IR)", "assay": "IR phosphorylation in mouse skeletal muscle", "type": "in vivo", "settings": "soleus muscle, 15 min after i.v. injection", "method": "After fasting overnight, mice were injected iv with agonist. After 15 min, mice were killed by soleus muscles were rapidly excised and were immediately frozen in liquid nitrogen. Lysates were prepared by homogenizing the tissues in lysis buffer (50 mM HEPES pH 7.5, 150 mM NaCl, 1% Triton X-100, 1 mM EDTA, 10% glycerol) containing protease inhibitors (0.5 mM PMSF, 1 μg/ml leupeptin and 5 μg/ml aprotinin) and phosphatase inhibitors (30 mM NaF, 1 mM Na3VO4 and 30 mM Na4O7P2). Debris was removed by centrifugation at 14,000 rpm for 10 min at 4° C. Immunoprecipitation and Western blots were performed as previously described."}}, "note": "Ends that are not written are not given here.", "data": [{"substance": "urocortin (DNPSLSIDLTFHLLRTLLELARTQSQRERAEQNRIIFDSV; ends and bridges not checked; UniProt P55089 83-122, looked up) [UCN, a 40 amino acid peptide as a member of the corticotrophin release factor (CRF) family]", "values": [{"measurement": "insulin-induced phosphorylation of IR, IRS and Akt", "setting": "[1]; 2 nM UCN and/or insulin 0-50 nm, 1 min", "value": "enhanced"}, {"measurement": "insulin-induced phosphorylation of IR", "setting": "[1]; in the presence of UCN, C2C12 myotubules", "value": "enhanced"}, {"measurement": "insulin-stimulated glucose uptake", "setting": "[2]", "value": "significantly increased"}, {"measurement": "insulin-mediated IR phosphorylation", "setting": "[3]; 1 μM CRF family peptide with 2 nM insulin, 1 min, hIRcB cells", "value": "potentate insulin-mediated IR phosphorylation"}, {"measurement": "dose and time dependence of insulin sensitizing effect", "setting": "[3]; UCN 2 nM to 1 μM with 2 nM insulin, 100 nM UCN with 10 nM insulin 0-60 min", "value": "increased in dose (12B,12C) and time (12D) dependent manner"}, {"measurement": "potency in potentiating insulin-mediated IR phosphorylation compared with CRF", "setting": "[3]; hIRcB cells", "value": "more potent"}, {"measurement": "IR phosphorylation by peptide alone", "setting": "[3]; without insulin, hIRcB cells", "value": "no effect on IR phosphorylation"}, {"measurement": "change of blood glucose level, UCN alone", "setting": "[4]; UCN (0.1 μM) i.v., 45 min", "value": "no effect on the change of blood glucose level"}, {"measurement": "blood glucose level, UCN co-injected with insulin", "setting": "[4]; UCN co-injected with inactive concentration of insulin (1 nM)", "value": "significantly decreased"}, {"measurement": "blood glucose level, UCN alone", "setting": "[5]; 0.1 μM UCN", "value": "down-regulated the blood glucose level"}, {"measurement": "blood glucose level, UCN alone", "setting": "[5]; from 100 pM up", "value": "enhanced blood glucose level"}, {"measurement": "insulin-induced IR phosphorylation in mouse skeletal muscle", "setting": "[6]", "value": "significantly sensitized insulin-induced IR phosphorylation"}]}]}
